Read-outs that look alike come from different tables or passages of the source.
What was measured:
[1] = In vitro permeation (flux) test, modified Franz vertical diffusion cell, Strat-M synthetic membrane; assay type: in vitro ADME
Experimental: For in vitro permeation testing, the prepared transdermal formulations in the following examples were subjected to a flux (in vitro permeation) test as follows with either full-split thickness human cadaver skin or Strat-M® synthetic membrane. The full-split thickness human cadaver skin is prepared by thawing at room temperature in DI water, after which it is placed into a 55° C. water bath for a few minutes. After removal from elevated temperature water bath, the stratum corneum layer is removed, inspected, blotted, and cut into suitable sized samples for placement on a modified Franz vertical diffusion cell. Meanwhile, the Strat-M® synthetic membrane is utilized as instructed by the Millipore-Sigma instruction guide on its use. The patches are die cut to a 5/16″ diameter (˜0.5 cm^2) and affixed to the skin with use of an overlay to secure patch to skin. Receiver media is either standard saline (0.9% NaCl in DI water) or a fixed concentration (1%-5%) of povidone in DI Water. Sample volume is 5 mL, Franz cell volume is 5 mL. […] Actual patch size is 0.5 cm^2 with an effective flux area of about 0.6 cm^2. Aliquots taken are analyzed by HPLC method for each independent API. Typically, 3-5 replicates per formulation are performed to ensure adequate statistical significance is obtained for each study.

[2] = Drug product stability: potency and degradation products by relative retention time, liquid chromatography; assay type: physicochemical; conditions: with panthenol and/or other humectants; long term stability studies at room temperature and above 40° C.
Excerpt: In Example 9, the effect of the incorporation of a humectant (e.g., panthenol) into the molecular solid suspension on the API stability and permeability is shown. […] In the tables below, TDS-009 includes 8 wt. % LLD, 5 wt. % Panthenol, 10% Poloxamer P407, 5 wt. % crospovidone and 22.5 wt. % Brij L4 in the presence of 49.5 wt. % DuroTak 87-4098 acrylic PSA, while TDS-011 is the same as TDS-009 without presence of 5 wt. % Panthenol, making up for the 5 wt. % difference with additional DuroTak 87-4098 acrylic PSA for a total of 54.5 wt. %.
Generally, the incorporation of panthenol into the molecular solid suspension results in a 10-fold reduction in hydrolytic degradation.
Each of the above formulations was protected from light, but not from ambient storage conditions of about 21° C. and ambient relative humidity.

[3] = assay type: in vitro ADME
[4] = cited from earlier work; for Water Sol: Table 2

C[C@@H]1C[C@H]2[C@@H]3CCC4=CC(=O)C=C[C@]4(C)[C@@]3(F)[C@@H](O)C[C@]2(C)[C@@]1(O)C(=O)CO [dexamethasone]
increase in slope (average flux and cumulative flux) ([1]; 5 wt. % dexamethasone, 5 wt. % Kollidon CLM, 20 wt. % Laureth-4, 70 wt. % Durotak 87-4098 vs comparators, FIGS. 9-10): almost an infinite increase

Nc1cccc2c1CN(C1CCC(=O)NC1=O)C2=O (centres unmarked) [lenalidomide]
hydrolytic degradation [2]: inhibits hydrolytic degradation | average flux ([3]; formulations with greater than about 15 wt. % O3 vs about 15 wt. % or less, FIG. 18): significantly higher | average flux ([3]; nonionic surfactants with HLB below 12 (O3, O5) vs HLB above 12 (O10, O20), FIG. 20): increased | observed flux rate ([1]; 4 wt. % drug formulation, FIGS. 13-14): 2.4 μg/cm^2/hr | average flux rate ([1]; 6 wt. % lenalidomide without panthenol, FIGS. 13-14): 4.2 μg/cm^2/hr | average flux rate ([1]; 6 wt. % lenalidomide without panthenol, FIGS. 15-16): 5.1 μg/cm^2/hr | overall permeation relative to same formulation excluding panthenol ([1]; 6 wt. % lenalidomide, 5 wt. % panthenol, FIGS. 13-14): about 1.2 times | overall permeation relative to same formulation excluding panthenol ([1]; 6 wt. % lenalidomide, 5 wt. % panthenol, FIGS. 15-16): about 1.5 times | average flux rate ([1]; 6 wt. % lenalidomide, 5 wt. % panthenol, after about the 8 hour time point, FIGS. 13-14): 5.4 μg/cm^2/hr | average flux rate ([1]; 6 wt. % lenalidomide, 5 wt. % panthenol, after about the 8 hour time point, FIGS. 15-16): 7.5 μg/cm^2/hr | average flux rate ([1]; 10 wt. % lenalidomide without panthenol, FIGS. 11-12): 3.4 μg/cm^2/hr | overall permeation relative to same formulation excluding panthenol ([1]; 10 wt. % lenalidomide, 5 wt. % panthenol, FIGS. 11-12): about 1.4 times | average flux rate ([1]; 10 wt. % lenalidomide, 5 wt. % panthenol, after about the 8 hour time point, FIGS. 11-12): 4.7 μg/cm^2/hr | average flux ([1]; HLB below 12 surfactants (O3, O5) with poloxamer P407 vs without poloxamer, FIG. 21): increased | average flux ([1]; at 24 hours, with both humectant and high HLB nonionic surfactant (panthenol and P407), low HLB surfactant O3, FIG. 17): about 6 μg/cm^2/hr | average flux ([1]; formulations with greater than about 15 wt. % O3 vs about 15 wt. % or less, FIG. 19): significantly higher

C#C[C@]1(O)CC[C@H]2[C@@H]3CCc4cc(O)ccc4[C@H]3CC[C@@]21C [Ethinyl Estradiol]
Water Sol [4]: ~0.1 mg/mL

O=C1CC[C@H](N2Cc3c(OCc4ccc(CN5CCOCC5)cc4)cccc3C2=O)C(=O)N1 [iberdomide]
water solubility [4]: less than 2 mg/mL

Clc1cccc(Cl)c1N=C1NCCN1 [Clonidine]
Water Sol [4]: ~1 mg/mL

Cc1cc2c(s1)Nc1ccccc1N=C2N1CCN(C)CC1 [olanzapine, 2-methyl-10-(4-methyl-1-piperazinyl)-4H-thieno-[2,3-b][1,5]benzo-diazepine]
depletion ([1]; 5 wt. % olanzapine molecular solid suspension with Laureth-4, after about 24 hours): 100% | increase in availability (average flux) at about 8-hour time point ([1]; 5 wt. % olanzapine molecular solid suspension with Laureth-4 vs comparators, FIG. 3): about 16 × | increase in slope for cumulative flux ([1]; 5 wt. % olanzapine, 5 wt. % Kollidon CLM, 20 wt. % Laureth-4, 70 wt. % Durotak 87-4098 vs formulations without Laureth-4, FIG. 4): approximately 1.2 × | depletion ([1]; other two olanzapine formulations (no Laureth-4), over 72 hours): 60%

CN1C2CCCC1CC(NC(=O)c1nn(C)c3ccccc13)C2 (centres unmarked) [Granisetron]
Water Sol [4]: ~40 mg/mL | water solubility [4]: less than 0.1 mg/mL

Reference: patent US20250134828A1, “MOLECULAR SOLID SUSPENSIONS FOR TRANSDERMAL DRUG DELIVERY” (Starton Therapeutics, Inc., priority 2023, published 2025)
